Source: the METLIN SMRT retention time set (Domingo-Almenara et al. 2019)

Assay: gradient 5% acetonitrile 3 min, to 50% in 2 min, to 85% in 15 min, held 3 min, 100 µL/min
Conditions: column: Zorbax Extend-C18 2.1 x 50 mm; eluents: water / acetonitrile, 0.1% formic acid
Method in brief: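 Retention times of pure standards were taken from adduct peaks that were selected by computer and manually inspected. Over 3 months, mixtures of ~100 molecules were run by HPLC–quadrupole time-of-flight mass spectrometry in positive and negative ionization mode. The Zorbax Extend-C18 column (2.1 × 50 mm, 1.8 μm) ran at 100 μL/min in water and acetonitrile, each containing 0.1% formic acid, with 40 μL dead volume and 900 μL dwell volume.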
Work on O=c1[nH]cc(Cl)cc1Cl yielded an RP-LC retention time of 662 s. C=C(C)Cn1c(COc2ccccc2)nc2ccccc21 gave an RP-LC retention time of 718 s. With CCOc1ccc(CNC(=O)CN2CC=C(c3cnn(-c4ccccc4)c3)CC2)cc1OCC the RP-LC retention time was 746 s. CCc1ccc(-n2nc(N3CCCC(C(=O)NCc4cccc(F)c4)C3)ccc2=O)cc1 (configuration not stated) showed an RP-LC retention time of 899 s. In the case of CCc1nc2cccnc2n1-c1ccc(C(=O)N(C)C)cc1, the RP-LC retention time was 589 s. N#C/C(=C\c1ccc2ccccc2c1)C(=O)c1ccccc1 showed an RP-LC retention time of 1090 s. CC1CCN(C(=O)C2N(C(C)C)C(=O)C23CCCC3)CC1 (configuration not stated) gave an RP-LC retention time of 737 s. Cc1ccccc1N1CCN(c2ncc(C(=O)O)c(C)n2)CC1 showed an RP-LC retention time of 1040 s. CC1(C(=O)NCc2ccccc2)CN(S(=O)(=O)c2ccccc2)CC(=O)N1C1CC1 (configuration not stated) gave an RP-LC retention time of 784 s. In the case of N#Cc1cc(-c2ccccc2)[nH]c1-c1nccc2ccccc12, the RP-LC retention time was 981 s. Compound CCCCN(CCCC)C(=O)C1CCCN1S(=O)(=O)c1cccc2nsnc12 (configuration not stated) has an RP-LC retention time of 1080 s. Work on CC(C)CCNC(=O)c1nnc(-c2ccc(S(=O)(=O)N(C)C)cc2)o1 yielded an RP-LC retention time of 877 s. With Cc1cc(C)cc(NC(=O)C2CC(=O)N(c3ccc4oc(C)nc4c3)C2)c1 (configuration not stated) the RP-LC retention time was 801 s. Compound CC(C)n1cnc(S(=O)(=O)N2CCCC(C(=O)Nc3ccc(F)cc3F)C2)c1 (configuration not stated) has an RP-LC retention time of 792 s. For O=C(Nc1ccc(Br)cc1)Nc1c(-c2ccncc2)nc2ccccn12, the RP-LC retention time was 641 s. CC1Oc2ccc(S(=O)(=O)N3CCC(C(=O)Nc4ccc(F)c(Cl)c4)CC3)cc2NC1=O (configuration not stated) showed an RP-LC retention time of 902 s. Cc1nc2cc3c(cc2n1CC(=O)Nc1ccc2c(c1)OCCO2)OCCO3 gave an RP-LC retention time of 632 s. With COc1ccc(CCS(=O)(=O)NCC2CCN(Cc3ccccc3SC)CC2)cc1 the RP-LC retention time was 598 s. For COC(=O)C1=C(C)N(C2CCCCC2)C(=O)C1(NC(=O)c1ccccc1OC)C(F)(F)F (configuration not stated), the RP-LC retention time was 1090 s. Work on Cc1cc(S(=O)(=O)N2CCC(n3cnnc3C(C)C)CC2)ccc1F yielded an RP-LC retention time of 751 s. With O=C(c1ccc2cc[nH]c2c1)N1CCC2(CC1)N=C(c1ccc(Cl)cc1)NO2 the RP-LC retention time was 841 s. Work on O=C(CN1CCN(C(=O)Nc2ccc(Br)cc2)CC1=O)Nc1ccc(F)cc1F yielded an RP-LC retention time of 1020 s. With CCOC(=O)c1[nH]c(C)c(C(=O)CN(CC2CCCO2)C(=O)c2ccc(F)cc2)c1C (configuration not stated) the RP-LC retention time was 800 s. Cc1ncc2c(n1)CCCN(CC(=O)NCC1CC1)C2=O gave an RP-LC retention time of 582 s. In the case of Cc1ccnc(Nc2nc(C)c(C(=O)N3CCC(C(N)=O)(N4CCCCC4)CC3)s2)c1, the RP-LC retention time was 561 s. In the case of CN1CCCN(C(=O)c2cn(-c3ccc(-c4nc(C(C)(C)C)no4)cn3)cn2)CC1, the RP-LC retention time was 656 s. For CCOC(=O)C1=C(CNc2ccc(C)c(Cl)c2)NC(=O)NC1c1ccc2c(c1)OCO2 (configuration not stated), the RP-LC retention time was 897 s. With CCn1ccc2sc(C)c(C(=O)NCc3ccc(F)cc3)c2c1=O the RP-LC retention time was 798 s. In the case of COc1ccc(Nc2c(-c3ccc(N(C)C)cc3)nc3cnccn23)cc1OC, the RP-LC retention time was 687 s. With COc1ccc(-c2csc(C)n2)cc1S(=O)(=O)N(C)c1ccc(C)cc1 the RP-LC retention time was 1040 s. Compound CN(C)c1cccc(-c2nc(-c3ccc4c(c3)nnn4CCC(=O)N3CCCC3)no2)c1 has an RP-LC retention time of 990 s. Cn1cccc(C(=O)Nc2ccc(N3CCCS3(=O)=O)cc2)c1=O showed an RP-LC retention time of 644 s. Compound Cc1cc(C)c2c(N3CCSCC3)nc(C(=O)NCC3CC3)nc2n1 has an RP-LC retention time of 653 s. Compound COc1ccc(CN(C)Cc2cc(=O)c3cc(C)ccc3[nH]2)cc1OC has an RP-LC retention time of 588 s. CCc1cc(=O)n(CC(=O)Nc2cccc(Cl)c2)c(-c2ccccc2)n1 showed an RP-LC retention time of 1220 s. Work on CSC1=C(C#N)C(c2ccco2)C(C(=O)Nc2ccccc2C)=C(C)N1 (configuration not stated) yielded an RP-LC retention time of 786 s. Compound COc1cccc(-c2noc(NC3CC3)n2)c1OC has an RP-LC retention time of 752 s. For COc1ccc(-c2noc(-c3ccc(N4CCN(C5CCCCC5)CC4)nc3)n2)cc1, the RP-LC retention time was 778 s. COc1ccccc1C(=O)N1CCc2ccccc2[C@H]1C gave an RP-LC retention time of 893 s. Work on Cc1ccc(S(=O)(=O)N2CCC(CN3CCCC(C)C3)CC2)cc1F (configuration not stated) yielded an RP-LC retention time of 702 s. For CCCN1C(=O)C2(NCCc3c2[nH]c2ccc(OC)cc32)c2cc(Br)ccc21 (configuration not stated), the RP-LC retention time was 729 s. COc1ccc(N2CCN(c3cc(SCC(=O)NC4CCCCC4)ncn3)CC2)cc1 showed an RP-LC retention time of 875 s. With Clc1ccc(-c2nc(N3CCC(N4CCCCC4)CC3)c3ccccc3n2)cc1 the RP-LC retention time was 616 s. In the case of Cc1ccc2nc(-c3cccc(Br)c3)c(Nc3ccccc3C)n2c1, the RP-LC retention time was 849 s. CCn1c(=O)c(C)nc2cc(-c3noc(-c4ccc(Br)cc4)n3)ccc21 showed an RP-LC retention time of 1270 s. Work on COc1ccc2c(CCNC(=O)c3ccccc3OC)c[nH]c2c1 yielded an RP-LC retention time of 788 s. Compound CC(C(=O)NCCCN(C)c1ccccc1)n1c(=O)c(C(F)(F)F)nc2ccccc21 (configuration not stated) has an RP-LC retention time of 881 s. Work on COc1cc2c3c(n(C)c(=O)c2cc1OC)-c1cc2c(cc1C3=O)OCO2 yielded an RP-LC retention time of 840 s. With O=C(c1ccc(C(F)(F)F)cc1)N1CC2CN(S(=O)(=O)c3ccccc3)CC(C1)O2 the RP-LC retention time was 881 s. For Cn1c(-c2cccc(C(=O)NC3CCCCCC3)c2)nc2cccnc21, the RP-LC retention time was 780 s. Compound Cc1ccc(C(=O)NC2CCCCCC2)cc1NC(=O)C1=CSCCO1 has an RP-LC retention time of 892 s. With COc1cccc(-c2noc(Cc3nnc(-c4cccc(Cl)c4)o3)n2)c1OC the RP-LC retention time was 1000 s. Compound Cc1nc(CSc2nnc3ccc(-c4cccnc4)nn23)cs1 has an RP-LC retention time of 577 s. CN(C)CCNC(=O)C1CCN(c2nc3ccc(-c4ccsc4)nc3s2)CC1 gave an RP-LC retention time of 645 s. CCc1cc(-c2csc(S(=O)(=O)Nc3cc(C)cc(C)c3)c2)on1 gave an RP-LC retention time of 1050 s. Work on COCCC(=O)N1CCC2(CCC2OC)CC1 (configuration not stated) yielded an RP-LC retention time of 664 s. For O=C(Nc1nc2c(s1)CN(C(=O)c1cc(-c3ccccc3)on1)CC2)C1CCCO1 (configuration not stated), the RP-LC retention time was 785 s. For COc1ccc2nc(C)cc(NCCCCCCCCCNc3cc(C)nc4ccc(OC)cc34)c2c1, the RP-LC retention time was 670 s. For O=C(NCc1ccc(F)cc1)C1CCCN(c2nccnc2Sc2ccccc2)C1 (configuration not stated), the RP-LC retention time was 1020 s. CC1CCN(CCNc2ncccc2-c2nnc(-c3ccc(Cl)cc3)o2)CC1 gave an RP-LC retention time of 813 s. CCCn1cnc2cc(-c3noc(COc4ccc(F)cc4)n3)ccc21 showed an RP-LC retention time of 787 s. Work on O=C(NCc1ccc2c(c1)OCO2)C1COC2(CCCCC2)N1C(=O)c1cccc(F)c1 (configuration not stated) yielded an RP-LC retention time of 845 s. Compound CC[C@@H](CO)Nc1nc(NCc2ccc(-c3ccccn3)cc2)c2ncn(C(C)C)c2n1 has an RP-LC retention time of 632 s. Cn1cc(C(=O)O)c(S(=O)(=O)N2CCOCC2)n1 gave an RP-LC retention time of 576 s. Cc1ccc(C(=O)N2CCCC(COc3ccc(C(=O)NC4CC4)cc3)C2)cc1F (configuration not stated) showed an RP-LC retention time of 849 s. With Cc1nnc2ccc(NC(=O)Nc3ccc(F)cc3)cn12 the RP-LC retention time was 660 s. For Cc1cc(=O)n(CC(=O)Nc2cc(F)ccc2C)c(N2CCCCC2)n1, the RP-LC retention time was 699 s.
